Drawing on patent US20240335431A1, “1-H-PYRROLO[2,3-c]PYRIDINE COMPOUNDS” (Acerta Pharma B.V., priority 2023, published 2024), this text covers IC50 and Ki for 16 molecules.

Experiment [1] concerns MOLM-13 cells. Kind of experiment: Proliferation assay, MOLM-13 (CellTiter-Glo, 7 days). The experiment is classed as cell-based, human. The procedure, abridged: (§1)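 Cells seeded at 125 (MOLM-13), 300 (MV4;11), 75 (OCI-AML3) or 200 (HEL) per well were exposed to 3.16-fold compound dilutions (0.1% DMSO) for 7 days at 37° C. Viability by CellTiter-Glo luminescence, normalized to DMSO (100%) and day-0 plate (0%); IC50 from one-site dose-response fit.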
Background: ATP-based viability assays read luminescence as a measure of living cells.

In experiment [2] the test system is MV4;11 cells. Description: Proliferation assay, MV4;11 (CellTiter-Glo, 7 days). The class given is cell-based, human. The note with it: read-out: MV-4-11 IC50. The gist of the method: as §1
Experiment [3] has as its system OCI-AML3 cells. Kind of experiment: Proliferation assay, OCI-AML3 (CellTiter-Glo, 7 days). The class given is cell-based, human. The gist of the method: as §1
Experiment [4] concerns the target hERG (Homo sapiens (Human), UniProt Q12809). Description: hERG assay 2, QPatch II 48X, room temperature. Conditions: hERG DUO cell line, top 200 μM. The class given is cell-based. On the procedure: Experiments were performed on the QPatch II 48X (Sophion Biosciences) high throughput patch clamp platform at room temperature and used single hole Qplates. hERG DUO cell line (BSys) was used. The internal patch clamp solution was KF 60 mM, KCl 70 mM, HEPES 10 mM, EGTA 10 mM, and 5 mM Mg ATP (pH7.2). After sealing and whole cell access was gained the external solution (NaCl 140 mM, KCl 4 mM, HEPES 10 mM, CaCl2 2 mM, MgCl2 1 mM, glucose 5 mM (pH 7.4) was applied twice to establish stable baseline currents. An industry standard +40/−40 mV voltage protocol was applied every 15 seconds. All compounds were tested in a 6-point cumulative assay (final DMSO concentration 0.4-2% depending on stock concentration of compounds). Compounds were dispensed from initial 10 mM or 50 mM DMSO stocks after which DMSO dilutions were undertaken with a top concentration of 200 μM tested. Solvent controls were run in all experiments in line with the DMSO % required. Only wells that passed acceptance criteria for this platform were used in this analysis (500 MegaOhm seal resistance and current size >0.2 nA). Analysis was completed in Prism Graphpad to complete a composite IC50, by plotting % inhibition versus log compound concentration and using a log(inhibitor) vs. response—Variable slope.

Experiment [5] deals with muscarinic M2 receptor (Homo sapiens (Human), UniProt P08172). Description: Muscarinic M2 receptor binding assay (assay 1). Conditions: [3H]AF-DX 384 2 nM, Cheng Prusoff. The gist of the method:
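Membrane homogenates (60 μg protein) were incubated with 2 nM [3H]AF-DX 384 for 60 min at 22° C in Tris-HCl pH 7.4 with NaCl, KCl, MgCl2 and EDTA; 1 μM atropine defined nonspecific binding. Filtration and scintillation counting gave percent inhibition of specific binding, with Ki by Cheng-Prusoff.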

Where two headings read alike, the source gives them in different places. Bounds are passed on as bounds.

Sequence of hERG (Q12809 whole entry): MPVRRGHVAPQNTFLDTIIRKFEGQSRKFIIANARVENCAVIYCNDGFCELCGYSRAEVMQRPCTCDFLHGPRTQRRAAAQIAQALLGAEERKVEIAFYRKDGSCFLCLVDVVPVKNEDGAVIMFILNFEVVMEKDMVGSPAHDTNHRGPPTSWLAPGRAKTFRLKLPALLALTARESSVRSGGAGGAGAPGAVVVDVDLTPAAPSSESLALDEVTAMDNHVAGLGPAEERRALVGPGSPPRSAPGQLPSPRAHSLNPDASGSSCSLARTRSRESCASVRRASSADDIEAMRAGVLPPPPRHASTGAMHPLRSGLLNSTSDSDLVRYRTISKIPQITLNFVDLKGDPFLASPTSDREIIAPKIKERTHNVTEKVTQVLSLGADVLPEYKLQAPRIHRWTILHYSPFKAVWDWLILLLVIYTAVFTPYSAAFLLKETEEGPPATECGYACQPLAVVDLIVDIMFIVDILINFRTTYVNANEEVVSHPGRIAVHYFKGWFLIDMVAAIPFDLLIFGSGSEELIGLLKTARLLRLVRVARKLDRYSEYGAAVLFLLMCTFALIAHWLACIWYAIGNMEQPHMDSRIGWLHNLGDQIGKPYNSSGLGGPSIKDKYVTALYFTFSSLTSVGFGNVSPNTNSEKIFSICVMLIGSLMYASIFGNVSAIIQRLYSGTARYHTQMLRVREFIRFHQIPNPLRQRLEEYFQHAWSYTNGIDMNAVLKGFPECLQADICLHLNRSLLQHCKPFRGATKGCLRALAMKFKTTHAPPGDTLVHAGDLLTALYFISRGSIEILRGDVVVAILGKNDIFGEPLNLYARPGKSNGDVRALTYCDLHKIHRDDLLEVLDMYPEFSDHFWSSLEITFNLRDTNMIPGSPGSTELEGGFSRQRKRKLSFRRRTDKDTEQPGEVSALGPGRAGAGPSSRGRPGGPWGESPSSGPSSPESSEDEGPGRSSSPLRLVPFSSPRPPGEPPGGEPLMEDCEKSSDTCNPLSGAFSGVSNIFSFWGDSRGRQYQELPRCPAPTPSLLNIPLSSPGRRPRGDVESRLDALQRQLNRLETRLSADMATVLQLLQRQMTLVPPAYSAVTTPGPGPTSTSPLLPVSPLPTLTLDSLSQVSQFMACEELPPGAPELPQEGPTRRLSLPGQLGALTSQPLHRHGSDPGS
Sequence of muscarinic M2 receptor (P08172 whole entry): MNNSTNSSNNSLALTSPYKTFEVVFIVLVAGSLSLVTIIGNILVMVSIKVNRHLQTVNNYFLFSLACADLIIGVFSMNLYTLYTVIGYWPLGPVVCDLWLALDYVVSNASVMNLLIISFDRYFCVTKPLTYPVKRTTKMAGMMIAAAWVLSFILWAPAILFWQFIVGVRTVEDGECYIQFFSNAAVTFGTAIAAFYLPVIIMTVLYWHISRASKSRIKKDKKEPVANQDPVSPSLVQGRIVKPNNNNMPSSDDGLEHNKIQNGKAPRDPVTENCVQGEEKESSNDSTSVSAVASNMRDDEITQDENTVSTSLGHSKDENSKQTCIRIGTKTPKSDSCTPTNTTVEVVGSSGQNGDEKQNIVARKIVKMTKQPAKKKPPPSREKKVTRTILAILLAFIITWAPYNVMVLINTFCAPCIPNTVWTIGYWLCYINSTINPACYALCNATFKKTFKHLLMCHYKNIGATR

The IC50 is the concentration at which inhibition is half-maximal. Usually Ki stands for a measure of affinity in units of concentration, obtained from inhibition or displacement. Turning to `Cc1c(C(=O)C2CCN(C(=O)[C@@H]3CCC(C)(C)N3)CC2)c2ccncc2n1-c1ccc(F)cc1C(=O)N(C(C)C)C(C)C` (single isomer, unassigned) [Compound 56-2], the IC50 in experiment [1] came to 40 nM; in experiment [2] (Homo sapiens, MV4-11, 168 h) it was 35 nM; in experiment [3] (Homo sapiens, OCI-AML-3, 168 h), 47 nM; in experiment [4], 138000 nM. In experiment [5], this molecule registered a Ki greater than 100000 nM.
In the case of `CCN(C(=O)c1cc(F)ccc1-n1c(C)c(C(=O)C2CCN(C(=O)[C@H]3NC[C@@H]4C[C@@H]43)CC2)c2ccncc21)C(C)C` (single isomer, unassigned) [Example 48-2], the IC50 is 27 nM in experiment [1], 29 nM in experiment [2], 23 nM in experiment [3] and greater than 200000 nM in experiment [4]. Further, the Ki in experiment [5] is 19000 nM.
With `Cc1c(C(=O)C2CCN(C(=O)[C@H]3NC[C@@H]4C[C@@H]43)CC2)c2ccncc2n1-c1ccc(F)cc1C(=O)N(CC(F)(F)F)C(C)C` (single isomer, unassigned) [Example 51-2], the IC50 was 31 nM in experiment [1]; 29 nM in experiment [2] (Homo sapiens, MV4-11, 168 h); 37 nM in experiment [3] (Homo sapiens, OCI-AML-3, 168 h); greater than 200000 nM in experiment [4]. The same molecule registered a Ki in experiment [5] of 30700 nM.
As for `Cc1c(C(=O)C2CCN(C(=O)[C@H]3NC[C@@H]4C[C@@H]43)CC2)c2ccncc2n1-c1ccc(F)cc1C(=O)N(C(C)C)C(C)C` (single isomer, unassigned) [Example 55-2], the IC50 came out at 25 nM in experiment [1]; 31 nM in experiment [2]; 29 nM in experiment [3] (Homo sapiens, OCI-AML-3, 168 h); 82300 nM in experiment [4]. In addition, the Ki in experiment [5] amounted to 51900 nM.
Consider `CC(C)N(C(=O)c1cc(F)ccc1-n1cc(C(=O)C2CN(C(=O)[C@H]3N[C@H]4C[C@@H]3[C@@H](F)C4)C2)c2ccncc21)C(C)C` [Example 7, 5-Fluoro-2-(3-(1-((1S,3S,4S,5S)-5-fluoro-2-azabicyclo[2.2.1]heptane-3-carbonyl)azetidine-3-carbonyl)-1H-pyrrolo[2,3-c]pyridin-1-yl)-N,N-diisopropylbenzamide], for which the IC50 in experiment [1] (Homo sapiens, MOLM-13, 168 h) is 63 nM; in experiment [2] (Homo sapiens, MV4-11, 168 h), 72 nM; in experiment [3] (Homo sapiens, OCI-AML-3, 168 h), 115 nM; in experiment [4], 150000 nM. In experiment [5], this molecule showed a Ki of 14400 nM.
For `CC(C)N(C(=O)c1cc(F)ccc1-n1cc(C(=O)C2CCN(C(=O)[C@@H]3CCC(C)(C)N3)CC2)c2ccncc21)C(C)C` [Example 27, (S)-2-(3-(1-(5,5-Dimethylpyrrolidine-2-carbonyl)piperidine-4-carbonyl)-1H-pyrrolo[2,3-c]pyridin-1-yl)-5-fluoro-N,N-diisopropylbenzamide], the IC50 came to 38 nM in experiment [1] (Homo sapiens, MOLM-13, 168 h); 35 nM in experiment [2] (Homo sapiens, MV4-11, 168 h); 34 nM in experiment [3] (Homo sapiens, OCI-AML-3, 168 h). This molecule also displayed a Ki in experiment [5] of 1600 nM.
Regarding `CCN(C(=O)c1cc(F)ccc1-n1cc(C(=O)C2CCN(C(=O)[C@H]3NC[C@@H]4C[C@@H]43)CC2)c2ccncc21)C(C)C` [Example 28, 2-(3-(1-((1S,2S,5R)-3-Azabicyclo[3.1.0]hexane-2-carbonyl)piperidine-4-carbonyl)-1H-pyrrolo[2,3-c]pyridin-1-yl)-N-ethyl-5-fluoro-N-isopropylbenzamide], the IC50 in experiment [1] (Homo sapiens, MOLM-13, 168 h) is 39 nM; in experiment [2] (Homo sapiens, MV4-11, 168 h), 34 nM; in experiment [4] it was greater than 200000 nM. In experiment [5], this molecule had an inhibition constant (Ki) of 400 nM.
In the same order, the values of `CCN(C(=O)c1cc(F)ccc1-n1cc(C(=O)C2CCN(C(=O)[C@H]3N[C@@H]4CC[C@H]3C4)CC2)c2ccncc21)C(C)C` [Example 31, 2-(3-(1-((1R,3S,4S)-2-Azabicyclo[2.2.1]heptane-3-carbonyl)piperidine-4-carbonyl)-1H-pyrrolo[2,3-c]pyridin-1-yl)-N-ethyl-5-fluoro-N-isopropylbenzamide] are 38 nM, 32 nM, greater than 200000 nM and 100 nM.
On to `C[C@@H]1CCC[C@H](C)N1C(=O)c1cc(F)ccc1-n1cc(C(=O)C2CCN(C(=O)[C@H]3N[C@@H]4CC[C@H]3C4)CC2)c2ccncc21` [Example 33, (1-((1R,3S,4S)-2-Azabicyclo[2.2.1]heptane-3-carbonyl)piperidin-4-yl)(1-(2-((2R,6S)-2,6-dimethylpiperidine-1-carbonyl)-4-fluorophenyl)-1H-pyrrolo[2,3-c]pyridin-3-yl)methanone], for which the IC50 in experiment [1] (Homo sapiens, MOLM-13, 168 h) was found to be 111 nM; in experiment [2] (Homo sapiens, MV4-11, 168 h), 103 nM; in experiment [3] (Homo sapiens, OCI-AML-3, 168 h), 207 nM. This molecule showed a Ki in experiment [5] of 300 nM.
Regarding `CC(C)n1nccc1-c1cc(F)ccc1-n1cc(C(=O)C2CCN(C(=O)[C@H]3N[C@@H]4CC[C@H]3C4)CC2)c2ccncc21` [Example 36, (1-((1R,3S,4S)-2-Azabicyclo[2.2.1]heptane-3-carbonyl)piperidin-4-yl)(1-(4-fluoro-2-(1-isopropyl-1H-pyrazol-5-yl)phenyl)-1H-pyrrolo[2,3-c]pyridin-3-yl)methanone], the IC50 in experiment [1] (Homo sapiens, MOLM-13, 168 h) amounted to 60 nM; in experiment [2] (Homo sapiens, MV4-11, 168 h), 43 nM; in experiment [4] it was 36500 nM. This molecule returned an inhibition constant Ki in experiment [5] of 1200 nM.
For `CC(C)c1ncncc1-c1cc(F)ccc1-n1cc(C(=O)C2CCN(C(=O)[C@H]3N[C@@H]4CC[C@H]3C4)CC2)c2ccncc21` [Example 37, (1-((1R,3S,4S)-2-Azabicyclo[2.2.1]heptane-3-carbonyl)piperidin-4-yl)(1-(4-fluoro-2-(4-isopropylpyrimidin-5-yl)phenyl)-1H-pyrrolo[2,3-c]pyridin-3-yl)methanone], in that order: 68 nM, 34 nM, greater than 200000 nM and 300 nM.
In the same order, the values of `CC(C)c1ncccc1-c1cc(F)ccc1-n1cc(C(=O)C2CCN(C(=O)[C@H]3N[C@@H]4CC[C@H]3C4)CC2)c2ccncc21` [Example 38, (1-((1R,3S,4S)-2-Azabicyclo[2.2.1]heptane-3-carbonyl)piperidin-4-yl)(1-(4-fluoro-2-(2-isopropylpyridin-3-yl)phenyl)-1H-pyrrolo[2,3-c]pyridin-3-yl)methanone] are 27 nM, 24 nM, 26000 nM and 300 nM.
Turning to `CC(C)c1ncsc1-c1cc(F)ccc1-n1cc(C(=O)C2CCN(C(=O)[C@H]3N[C@@H]4CC[C@H]3C4)CC2)c2ccncc21.O=CO` [Example 42, (1-((1R,3S,4S)-2-Azabicyclo[2.2.1]heptane-3-carbonyl)piperidin-4-yl)(1-(4-fluoro-2-(4-isopropylthiazol-5-yl)phenyl)-1H-pyrrolo[2,3-c]pyridin-3-yl)methanone 1·formic acid], the IC50 worked out at 40 nM in experiment [1] (Homo sapiens, MOLM-13, 168 h); 43 nM in experiment [2] (Homo sapiens, MV4-11, 168 h); 76 nM in experiment [3] (Homo sapiens, OCI-AML-3, 168 h). The Ki in experiment [5] worked out at 500 nM.
For `CC(C)N(C(=O)c1cc(F)ccc1-n1cc(C(=O)C2CCN(C(=O)[C@H]3N[C@@H]4CC[C@H]3C4)CC2)c2c(F)cncc21)C(C)C.O=CO` [Example 44, 2-(3-(1-((1R,3S,4S)-2-Azabicyclo[2.2.1]heptane-3-carbonyl)piperidine-4-carbonyl)-4-fluoro-1H-pyrrolo[2,3-c]pyridin-1-yl)-5-fluoro-N,N-diisopropylbenzamide 1·formic acid], in that order: 73 nM, 65 nM, 117 nM and 2800 nM.
`CCN(C(=O)c1cc(F)ccc1-n1c(C)c(C(=O)C2CCN(C(=O)[C@H]3N[C@@H]4CC[C@H]3C4)CC2)c2ccncc21)C(C)C` [Example 46, 2-(3-(1-((1R,3S,4S)-2-Azabicyclo[2.2.1]heptane-3-carbonyl)piperidine-4-carbonyl)-2-methyl-1H-pyrrolo[2,3-c]pyridin-1-yl)-N-ethyl-5-fluoro-N-isopropylbenzamide]: the IC50 in experiment [1] (Homo sapiens, MOLM-13, 168 h) is 52 nM; in experiment [2] (Homo sapiens, MV4-11, 168 h), 37 nM; in experiment [4], greater than 200000 nM. In experiment [5], this molecule returned an inhibition constant (Ki) of 7100 nM.
For the molecule `Cc1c(C(=O)C2CCN(C(=O)[C@H]3NC[C@@H]4C[C@@H]43)CC2)c2ccncc2n1-c1ccc(F)cc1-c1cnccc1C(C)C` [Example 54, (1-((1S,2S,5R)-3-Azabicyclo[3.1.0]hexane-2-carbonyl)piperidin-4-yl)(1-(4-fluoro-2-(4-isopropylpyridin-3-yl)phenyl)-2-methyl-1H-pyrrolo[2,3-c]pyridin-3-yl)methanone], the IC50 worked out at 49 nM in experiment [1] (Homo sapiens, MOLM-13, 168 h); 40 nM in experiment [2] (Homo sapiens, MV4-11, 168 h); 43 nM in experiment [3] (Homo sapiens, OCI-AML-3, 168 h). In experiment [5], this molecule came in with a Ki of 3500 nM.
